Results taken from ChEMBL document CHEMBL1201862, “PubChem BioAssay data set” (2004).
Active and inactive are the calls of the source.

How the values were obtained:
[1] = target: T1, Kappa-type opioid receptor (Homo sapiens, UniProt P41145); type: functional
[2] = target: T1, Kappa-type opioid receptor; type: functional; remark: listed apart in the source
[3] = Counterscreen for IDE inhibitors: Luminescence-based cell-based high throughput dose response assay to identify compounds that are cytotoxic to HEK cells. [Related pubchem assays: 434962 (Primary screen (IDE inhibitors in singlicate)), 449730 (Counterscreen (Cytotoxicity in triplicate)), 435028 (Confirmation (IDE inhibitors in triplicate)) …; type: functional; conditions: HEK293
Beta-galactosidase = Beta-galactosidase (Escherichia coli, UniProt Q8VNN2); type: functional
BJ [4] = assay: cytotoxicity toward BJ-TERT fibroblasts, dose response, cell-based, RAS-independent, luminescence (AID 1933); type: functional; conditions: Homo sapiens
BJ [5] = assay: cells; type: functional, cell-based; conditions: Homo sapiens
[6] = cytotoxicity toward DRD oncogenic fibroblasts, dose response, cell-based, non-viral oncogenic, luminescence (AID 1934); type: functional; conditions: Homo sapiens
BJ [7] = assay: cytotoxicity toward BJ-TERT-LT-ST fibroblasts, dose response, cell-based, RAS-independent, luminescence (AID 1935); type: functional; conditions: Homo sapiens;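 also: BJ fibroblasts immortalized with TERT plus LT and ST oncogenes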
Insulin-degrading enzyme = target: T2, Insulin-degrading enzyme (Homo sapiens, UniProt P14735); assay: Dose Response: Fluorescence polarization-based cell-based high throughput dose response assay for inhibitors of insulin-degrading enzyme (IDE). [Related pubchem assays: 434962 (Primary screen (IDE inhibitors in singlicate)), 449730 (Counterscreen (Cytotoxicity in triplicate)), 435028 (Confirmation (IDE inhibitors in triplicate)), 434984 (Summary …; type: functional
T2 sequence (P14735 whole entry): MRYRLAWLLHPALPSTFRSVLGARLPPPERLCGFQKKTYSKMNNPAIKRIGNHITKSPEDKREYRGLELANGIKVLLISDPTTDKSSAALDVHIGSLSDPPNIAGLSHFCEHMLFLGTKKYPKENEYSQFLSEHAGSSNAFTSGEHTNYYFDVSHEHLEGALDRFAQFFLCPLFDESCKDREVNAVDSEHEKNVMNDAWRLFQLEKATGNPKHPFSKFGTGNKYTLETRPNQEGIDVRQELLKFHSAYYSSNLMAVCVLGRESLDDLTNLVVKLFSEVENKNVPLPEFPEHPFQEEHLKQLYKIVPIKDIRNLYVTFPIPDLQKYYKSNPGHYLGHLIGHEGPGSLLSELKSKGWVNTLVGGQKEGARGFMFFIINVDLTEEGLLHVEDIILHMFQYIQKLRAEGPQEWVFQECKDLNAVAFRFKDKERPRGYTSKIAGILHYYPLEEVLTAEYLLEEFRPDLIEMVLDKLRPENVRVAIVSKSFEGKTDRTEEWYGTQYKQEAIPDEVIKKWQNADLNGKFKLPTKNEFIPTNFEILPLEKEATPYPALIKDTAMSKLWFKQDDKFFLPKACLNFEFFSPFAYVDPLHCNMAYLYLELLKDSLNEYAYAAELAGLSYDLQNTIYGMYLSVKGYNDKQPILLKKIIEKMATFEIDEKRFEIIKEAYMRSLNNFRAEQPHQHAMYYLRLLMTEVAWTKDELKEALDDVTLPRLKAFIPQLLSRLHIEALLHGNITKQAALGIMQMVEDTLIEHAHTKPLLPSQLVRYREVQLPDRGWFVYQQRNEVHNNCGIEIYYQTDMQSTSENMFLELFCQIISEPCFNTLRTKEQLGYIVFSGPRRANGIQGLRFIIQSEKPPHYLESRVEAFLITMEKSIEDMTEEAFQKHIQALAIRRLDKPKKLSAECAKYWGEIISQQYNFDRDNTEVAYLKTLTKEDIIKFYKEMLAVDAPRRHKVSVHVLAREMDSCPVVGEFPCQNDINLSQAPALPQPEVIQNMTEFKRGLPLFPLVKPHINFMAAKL

[8] = target: G2/mitotic-specific cyclin-B1 (Homo sapiens, UniProt P14635); assay: Counterscreen assay for inhibitors of Wee1 degradation: dose response cell-based assay to identify inhibitors of cyclin B degradation. [Related pubchem assays: 1410, 1321 ]; type: functional
[9] = target: T3, Heat shock factor protein 1 (Mus musculus, UniProt P38532); assay: HSF1 potentiators in luciferase reporter cells, confirmation, cell-based, NIH3T3, luminescence, dose retest (AID 435004); type: functional;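 also: stress induced by proteasome inhibitor MG132 added 30 min after compound; luciferase reporter driven by HSF1 response element in NIH3T3 cells; actives raise luminescence as potentiators of the MG132 stress response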
T3 sequence (P38532 whole entry): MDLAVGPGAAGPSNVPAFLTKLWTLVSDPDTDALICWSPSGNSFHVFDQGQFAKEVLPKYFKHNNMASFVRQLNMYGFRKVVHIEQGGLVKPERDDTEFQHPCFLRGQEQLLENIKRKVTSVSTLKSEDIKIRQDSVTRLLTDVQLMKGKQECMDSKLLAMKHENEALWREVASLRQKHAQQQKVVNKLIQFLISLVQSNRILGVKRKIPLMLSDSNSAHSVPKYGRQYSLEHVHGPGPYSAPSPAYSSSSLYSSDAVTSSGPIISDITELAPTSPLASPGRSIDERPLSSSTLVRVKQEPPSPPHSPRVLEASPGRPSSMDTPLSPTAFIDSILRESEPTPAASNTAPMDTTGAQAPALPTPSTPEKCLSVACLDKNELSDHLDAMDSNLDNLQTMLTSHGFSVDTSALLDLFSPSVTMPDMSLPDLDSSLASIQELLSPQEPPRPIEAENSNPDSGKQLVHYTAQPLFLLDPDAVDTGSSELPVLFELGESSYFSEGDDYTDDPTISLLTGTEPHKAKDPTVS

Wee1-like protein kinase = Wee1-like protein kinase (Homo sapiens, UniProt P30291); assay: Dose Response Cell-based Assay for Inhibitors of Wee1 Degradation. [Related pubchem assays: 1410, 1321 ]; type: functional
[10] = target: FAD-linked sulfhydryl oxidase ALR (Homo sapiens, UniProt P55789); assay: inhibitors of human ALR sulfhydryl oxidase, dose response, biochemical, H2O2 detection, luminescence, cherry-pick (AID 493248)
[11] = HIV-1 Env-mediated cell fusion inhibitors, dose response, CCR5-tropic Env (AID 2279); type: functional
[12] = target: T4, Dual specificity protein phosphatase 6 (Rattus norvegicus, UniProt Q64346)
T4 sequence (Q64346 whole entry): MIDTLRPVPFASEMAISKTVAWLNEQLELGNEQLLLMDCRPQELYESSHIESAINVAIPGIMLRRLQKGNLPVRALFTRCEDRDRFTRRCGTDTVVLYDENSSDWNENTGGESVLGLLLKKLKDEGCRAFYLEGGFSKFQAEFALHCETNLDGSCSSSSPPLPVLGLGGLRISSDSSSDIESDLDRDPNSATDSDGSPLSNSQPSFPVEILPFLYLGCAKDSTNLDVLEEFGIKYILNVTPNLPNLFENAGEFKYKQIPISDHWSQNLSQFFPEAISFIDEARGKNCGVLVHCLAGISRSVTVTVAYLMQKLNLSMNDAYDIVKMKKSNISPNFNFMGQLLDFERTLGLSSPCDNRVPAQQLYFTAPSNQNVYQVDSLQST

[13] = target: Heat shock 70 kDa protein 1A (Homo sapiens, UniProt P0DMV8); assay: Hsp70 inhibitors, SAR follow-up, biochemical, fluorescence polarization (AID 1072)
[14] = target: T5, Tyrosine-protein phosphatase non-receptor type 7 (Homo sapiens, UniProt P35236); type: functional
T5 sequence (P35236 whole entry): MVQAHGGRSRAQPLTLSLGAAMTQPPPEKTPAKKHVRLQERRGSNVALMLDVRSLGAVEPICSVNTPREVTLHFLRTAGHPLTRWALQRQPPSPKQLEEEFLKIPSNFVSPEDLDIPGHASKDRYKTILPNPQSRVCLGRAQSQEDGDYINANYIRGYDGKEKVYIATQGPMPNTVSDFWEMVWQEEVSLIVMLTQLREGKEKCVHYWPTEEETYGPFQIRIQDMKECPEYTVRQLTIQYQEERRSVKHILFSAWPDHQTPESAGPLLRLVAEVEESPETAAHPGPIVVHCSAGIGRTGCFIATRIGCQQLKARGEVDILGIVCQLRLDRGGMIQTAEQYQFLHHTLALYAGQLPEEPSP

[15] = target: Glyceraldehyde-3-phosphate dehydrogenase (Homo sapiens, UniProt P04406)
[16] = target: Heat shock cognate 71 kDa protein (Homo sapiens, UniProt P11142); assay: In Vitro Hsc70 Dose Response Fluorescence Polarization Assay. [Related pubchem assays: 1072 ]
[17] = target: T4, Dual specificity protein phosphatase 6; type: functional
HT-1080 = assay: cytotoxicity in HT1080 fibrosarcoma cells, cell-based, fluorescence readout (AID 620); type: functional; conditions: Homo sapiens
[18] = target: Luciferin 4-monooxygenase (Photinus pyralis, UniProt P08659); assay: Counter Screen for Luciferase-based Assay Positives. [Related pubchem assays: 620, 618, 411 ]
cells = type: functional
[19] = target: Melanin-concentrating hormone receptor 1 (Homo sapiens, UniProt Q99705); assay: Late-stage fluorescence-based counterscreen for antagonists of the G-protein coupled receptor 7 (GPR7): cell-based dose response assay to identify antagonists of the melanin-concentrating hormone receptor 1 (MCHR1). [Related pubchem assays (depositor defined):AID1861, AID1880, AID1952, AID2148, AID2251, AID2257, AID485339]; type: functional;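 also: stimulated with 30 nM MCH peptide agonist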
[20] = target: Dual specificity protein phosphatase 3 (Homo sapiens, UniProt P51452); assay: VHR1 inhibitor Ki determination, SAR follow-up, biochemical, colorimetric (AID 2004)
Cytochrome P450 2C9 = Cytochrome P450 2C9 (Homo sapiens, UniProt P11712); conditions: Potency
[21] = target: T6, Neuropeptide Y receptor type 1 (Homo sapiens, UniProt P25929); type: functional;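 also: HEK293 cells with a CNG channel challenged with NPY then isoproterenol; potency as antagonist that reverses NPY suppression of cAMP signal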
T6 sequence (P25929 whole entry): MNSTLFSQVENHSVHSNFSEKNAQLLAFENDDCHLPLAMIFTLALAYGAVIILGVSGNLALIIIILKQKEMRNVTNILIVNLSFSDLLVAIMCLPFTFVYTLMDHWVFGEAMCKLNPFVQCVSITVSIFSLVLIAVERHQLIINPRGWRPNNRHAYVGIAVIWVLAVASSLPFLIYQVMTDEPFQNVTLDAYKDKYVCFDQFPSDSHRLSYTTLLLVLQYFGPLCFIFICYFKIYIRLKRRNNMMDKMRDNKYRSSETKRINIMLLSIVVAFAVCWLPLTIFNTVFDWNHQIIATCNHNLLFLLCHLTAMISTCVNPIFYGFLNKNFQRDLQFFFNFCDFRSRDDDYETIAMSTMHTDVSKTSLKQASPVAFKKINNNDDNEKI

[22] = target: T7, Neuropeptide Y receptor type 2 (Homo sapiens, UniProt P49146); type: functional, cell-based;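 also: HEK293 cells expressing the receptor and a CNG channel; stimulus was NPY near EC95 followed by isoproterenol to raise cAMP; antagonist potency measured as restoring cAMP signal that NPY suppresses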
T7 sequence (P49146 whole entry): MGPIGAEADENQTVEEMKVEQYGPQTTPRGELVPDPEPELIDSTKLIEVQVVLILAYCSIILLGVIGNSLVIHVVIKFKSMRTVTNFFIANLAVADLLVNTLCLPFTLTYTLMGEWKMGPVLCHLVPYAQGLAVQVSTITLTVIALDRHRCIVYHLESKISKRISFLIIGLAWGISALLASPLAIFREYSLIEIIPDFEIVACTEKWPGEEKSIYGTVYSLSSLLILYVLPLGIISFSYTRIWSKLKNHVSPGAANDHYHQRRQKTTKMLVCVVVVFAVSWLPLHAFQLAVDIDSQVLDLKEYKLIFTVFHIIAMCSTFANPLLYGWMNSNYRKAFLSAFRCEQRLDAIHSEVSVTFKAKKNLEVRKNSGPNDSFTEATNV

[23] = target: Mothers against decapentaplegic homolog 3 (Homo sapiens, UniProt P84022); assay: Smad3 binding inhibitors, lysate ELISA, dose response, cell lysate, secondary confirmation, chemiluminescent ELISA, HEK293 lysate (AID 1058); type: functional
Chain of Mothers against decapentaplegic homolog 3 (P84022 whole entry): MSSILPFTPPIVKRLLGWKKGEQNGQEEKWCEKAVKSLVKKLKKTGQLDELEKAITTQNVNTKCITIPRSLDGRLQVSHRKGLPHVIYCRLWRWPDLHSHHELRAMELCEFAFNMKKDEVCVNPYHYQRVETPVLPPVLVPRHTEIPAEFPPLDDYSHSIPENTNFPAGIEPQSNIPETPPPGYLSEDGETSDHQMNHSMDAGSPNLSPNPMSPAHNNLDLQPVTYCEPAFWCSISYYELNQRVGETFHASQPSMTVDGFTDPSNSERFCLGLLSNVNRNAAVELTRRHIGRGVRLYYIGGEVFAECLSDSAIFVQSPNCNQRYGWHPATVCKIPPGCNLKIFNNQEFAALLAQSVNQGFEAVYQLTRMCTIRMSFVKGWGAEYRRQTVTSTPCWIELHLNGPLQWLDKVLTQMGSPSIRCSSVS

T1 sequence (P41145 whole entry): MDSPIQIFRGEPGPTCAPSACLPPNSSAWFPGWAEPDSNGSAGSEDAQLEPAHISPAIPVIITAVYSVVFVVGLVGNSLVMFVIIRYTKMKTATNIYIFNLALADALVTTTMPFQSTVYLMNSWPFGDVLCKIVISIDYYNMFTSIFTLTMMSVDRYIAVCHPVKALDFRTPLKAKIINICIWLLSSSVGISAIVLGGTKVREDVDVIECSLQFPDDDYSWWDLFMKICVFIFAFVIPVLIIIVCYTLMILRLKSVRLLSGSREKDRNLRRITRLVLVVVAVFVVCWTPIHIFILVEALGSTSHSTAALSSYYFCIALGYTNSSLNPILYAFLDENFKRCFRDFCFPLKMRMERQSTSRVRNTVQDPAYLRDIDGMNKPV
Chain of Heat shock cognate 71 kDa protein (P11142 whole entry): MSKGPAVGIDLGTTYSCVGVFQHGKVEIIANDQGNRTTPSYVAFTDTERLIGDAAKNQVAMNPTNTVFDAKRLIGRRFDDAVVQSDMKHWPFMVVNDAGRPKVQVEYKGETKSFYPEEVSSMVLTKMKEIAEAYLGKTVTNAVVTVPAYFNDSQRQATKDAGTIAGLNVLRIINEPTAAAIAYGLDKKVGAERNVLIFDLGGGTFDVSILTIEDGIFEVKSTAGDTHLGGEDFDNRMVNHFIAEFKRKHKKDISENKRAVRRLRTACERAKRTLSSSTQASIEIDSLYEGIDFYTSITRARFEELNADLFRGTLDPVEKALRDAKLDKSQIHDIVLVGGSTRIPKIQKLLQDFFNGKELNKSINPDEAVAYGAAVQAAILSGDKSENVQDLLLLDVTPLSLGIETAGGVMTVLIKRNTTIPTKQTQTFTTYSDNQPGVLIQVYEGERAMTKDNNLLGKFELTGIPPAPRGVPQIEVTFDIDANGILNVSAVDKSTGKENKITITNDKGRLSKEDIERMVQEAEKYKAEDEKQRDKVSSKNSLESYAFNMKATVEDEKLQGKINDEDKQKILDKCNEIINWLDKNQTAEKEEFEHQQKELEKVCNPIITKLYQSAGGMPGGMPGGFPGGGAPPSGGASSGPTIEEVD
Chain of Heat shock 70 kDa protein 1A (P0DMV8 whole entry): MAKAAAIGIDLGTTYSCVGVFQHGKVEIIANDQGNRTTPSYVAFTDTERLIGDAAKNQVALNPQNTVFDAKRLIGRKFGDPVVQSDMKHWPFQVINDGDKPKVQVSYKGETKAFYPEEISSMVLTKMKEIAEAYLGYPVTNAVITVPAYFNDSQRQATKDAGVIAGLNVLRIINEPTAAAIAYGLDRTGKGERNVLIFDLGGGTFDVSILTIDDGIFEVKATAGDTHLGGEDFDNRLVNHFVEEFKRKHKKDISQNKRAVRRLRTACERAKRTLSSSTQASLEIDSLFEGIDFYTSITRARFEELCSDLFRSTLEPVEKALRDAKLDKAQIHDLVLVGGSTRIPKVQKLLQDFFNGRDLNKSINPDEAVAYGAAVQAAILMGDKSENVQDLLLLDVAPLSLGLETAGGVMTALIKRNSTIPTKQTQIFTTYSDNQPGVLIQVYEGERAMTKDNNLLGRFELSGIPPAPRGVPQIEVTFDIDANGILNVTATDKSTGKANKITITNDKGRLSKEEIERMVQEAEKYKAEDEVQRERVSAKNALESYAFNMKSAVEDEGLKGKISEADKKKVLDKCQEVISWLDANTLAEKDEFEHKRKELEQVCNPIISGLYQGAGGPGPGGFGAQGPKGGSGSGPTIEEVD
Chain of Dual specificity protein phosphatase 3 (P51452 whole entry): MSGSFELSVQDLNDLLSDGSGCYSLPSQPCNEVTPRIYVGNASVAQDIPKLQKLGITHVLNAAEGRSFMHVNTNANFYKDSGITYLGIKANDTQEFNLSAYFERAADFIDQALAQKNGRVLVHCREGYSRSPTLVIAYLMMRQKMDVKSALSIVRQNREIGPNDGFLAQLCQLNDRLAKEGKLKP
Chain of Cytochrome P450 2C9 (P11712 whole entry): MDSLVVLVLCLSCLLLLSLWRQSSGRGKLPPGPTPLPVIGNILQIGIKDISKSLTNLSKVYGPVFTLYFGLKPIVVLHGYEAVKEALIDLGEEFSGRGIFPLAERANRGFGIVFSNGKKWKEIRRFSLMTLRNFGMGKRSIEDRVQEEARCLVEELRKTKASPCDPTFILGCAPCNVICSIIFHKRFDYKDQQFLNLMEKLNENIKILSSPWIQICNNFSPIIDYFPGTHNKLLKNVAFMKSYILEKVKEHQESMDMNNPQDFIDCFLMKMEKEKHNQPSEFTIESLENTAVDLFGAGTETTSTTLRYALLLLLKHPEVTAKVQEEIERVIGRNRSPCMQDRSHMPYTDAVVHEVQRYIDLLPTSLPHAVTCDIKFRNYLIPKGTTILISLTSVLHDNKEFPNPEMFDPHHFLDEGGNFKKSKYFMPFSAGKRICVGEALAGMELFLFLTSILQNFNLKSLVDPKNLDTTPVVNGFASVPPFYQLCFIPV
Chain of Beta-galactosidase (Q8VNN2 whole entry): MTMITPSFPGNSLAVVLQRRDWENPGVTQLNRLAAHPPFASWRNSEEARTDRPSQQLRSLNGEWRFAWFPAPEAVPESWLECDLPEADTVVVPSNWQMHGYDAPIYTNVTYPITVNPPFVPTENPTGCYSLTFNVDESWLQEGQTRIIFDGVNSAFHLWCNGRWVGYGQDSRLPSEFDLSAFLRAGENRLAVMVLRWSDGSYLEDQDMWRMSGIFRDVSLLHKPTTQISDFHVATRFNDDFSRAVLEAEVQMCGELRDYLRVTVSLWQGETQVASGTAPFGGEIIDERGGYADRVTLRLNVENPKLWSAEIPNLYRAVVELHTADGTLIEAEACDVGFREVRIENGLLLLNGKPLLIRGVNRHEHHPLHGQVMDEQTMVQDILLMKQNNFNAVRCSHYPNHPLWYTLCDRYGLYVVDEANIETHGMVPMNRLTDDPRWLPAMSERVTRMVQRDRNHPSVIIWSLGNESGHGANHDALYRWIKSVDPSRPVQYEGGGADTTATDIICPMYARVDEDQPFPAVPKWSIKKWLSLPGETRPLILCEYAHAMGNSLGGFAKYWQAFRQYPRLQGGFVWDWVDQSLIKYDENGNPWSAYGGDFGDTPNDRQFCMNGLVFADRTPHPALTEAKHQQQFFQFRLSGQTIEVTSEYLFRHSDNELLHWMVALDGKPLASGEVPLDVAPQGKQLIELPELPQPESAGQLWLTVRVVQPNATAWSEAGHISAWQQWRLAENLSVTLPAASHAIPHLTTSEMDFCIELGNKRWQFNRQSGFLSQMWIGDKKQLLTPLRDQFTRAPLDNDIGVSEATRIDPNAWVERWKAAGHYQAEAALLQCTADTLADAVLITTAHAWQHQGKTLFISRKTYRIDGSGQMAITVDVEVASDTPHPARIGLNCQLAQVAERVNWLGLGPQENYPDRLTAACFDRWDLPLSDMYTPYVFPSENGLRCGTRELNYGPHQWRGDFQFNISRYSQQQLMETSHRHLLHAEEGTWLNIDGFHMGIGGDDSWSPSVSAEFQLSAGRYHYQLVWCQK
Chain of Wee1-like protein kinase (P30291 whole entry): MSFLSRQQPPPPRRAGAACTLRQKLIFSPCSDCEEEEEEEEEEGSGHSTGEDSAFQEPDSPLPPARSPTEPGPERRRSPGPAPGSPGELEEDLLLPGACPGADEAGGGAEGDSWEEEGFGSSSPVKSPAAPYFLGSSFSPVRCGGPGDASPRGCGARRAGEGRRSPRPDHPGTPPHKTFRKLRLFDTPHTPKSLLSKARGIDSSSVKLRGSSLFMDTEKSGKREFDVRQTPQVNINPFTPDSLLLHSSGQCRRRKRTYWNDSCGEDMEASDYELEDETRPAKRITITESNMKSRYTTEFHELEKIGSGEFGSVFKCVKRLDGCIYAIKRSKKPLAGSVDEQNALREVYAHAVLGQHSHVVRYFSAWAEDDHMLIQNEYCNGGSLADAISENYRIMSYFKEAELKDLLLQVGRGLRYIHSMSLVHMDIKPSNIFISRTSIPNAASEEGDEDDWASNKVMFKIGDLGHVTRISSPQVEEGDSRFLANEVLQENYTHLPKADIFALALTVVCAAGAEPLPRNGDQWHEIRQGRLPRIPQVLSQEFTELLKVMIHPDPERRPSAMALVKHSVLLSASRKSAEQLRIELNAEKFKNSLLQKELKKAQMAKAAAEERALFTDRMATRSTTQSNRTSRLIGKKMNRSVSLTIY
Chain of Melanin-concentrating hormone receptor 1 (Q99705 whole entry): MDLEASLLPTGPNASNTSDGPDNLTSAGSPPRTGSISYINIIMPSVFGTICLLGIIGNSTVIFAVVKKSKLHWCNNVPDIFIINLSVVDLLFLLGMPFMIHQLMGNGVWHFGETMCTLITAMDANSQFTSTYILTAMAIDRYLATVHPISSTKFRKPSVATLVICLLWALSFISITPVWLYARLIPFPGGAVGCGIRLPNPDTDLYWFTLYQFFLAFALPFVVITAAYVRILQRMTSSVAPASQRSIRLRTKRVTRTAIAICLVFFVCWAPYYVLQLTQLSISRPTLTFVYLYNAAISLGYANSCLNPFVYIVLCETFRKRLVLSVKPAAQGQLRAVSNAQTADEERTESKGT
Chain of FAD-linked sulfhydryl oxidase ALR (P55789 whole entry, the tested form may be a part): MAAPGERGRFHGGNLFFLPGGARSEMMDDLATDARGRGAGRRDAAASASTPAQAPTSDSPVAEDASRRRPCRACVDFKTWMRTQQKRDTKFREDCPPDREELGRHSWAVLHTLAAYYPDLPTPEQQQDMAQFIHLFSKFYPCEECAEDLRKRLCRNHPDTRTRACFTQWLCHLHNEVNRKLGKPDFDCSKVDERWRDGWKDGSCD

## CCN1C(=O)/C(=C/C=C2/Sc3ccccc3N2CCO)SC1=S
[1]
  IC50: 13.2 µM (active)
[2]
  IC50: 27.6 µM
[3]
  IC50: 12.1 µM (not active)
Beta-galactosidase
  EC50: 16.7 µM (active)
BJ [4]
  EC50: 28.7 µM (active)
BJ [5]
  EC50: 30.4 µM (active)
[6]
  EC50: 50.2 µM (active)
BJ [7]
  EC50: > 150 µM (not active)
Insulin-degrading enzyme
  IC50: > 56 µM (not active)

## Cc1ccc2[nH]c(NCc3ccccc3)nc2c1
[8]
  EC50: > 49.7 µM (not active)
[9]
  EC50: > 260 µM (inactive)
Wee1-like protein kinase
  EC50: > 49.7 µM (not active)
[10]
  AC50: 6.87 µM (active)

## Cc1ccc(-c2nc(SCC(=O)Nc3ccccc3OC(F)F)c3c(C)c(C(=O)O)sc3n2)cc1
[11]
  IC50: 18.8 µM (active)

## Cc1cc(C)c2c(c1)C1C=CCC1C(C(=O)O)N2 (centres undefined)
[12]
  IC50: > 100 µM (inactive)
[13]
  IC50: 24.7 µM (active)
[14]
  IC50: 70.2 µM (active)
[15]
  IC50: > 100 µM (not active)
[16]
  IC50: > 100 µM (not active)
[17]
  IC50: > 100 µM (inactive)

## Cc1ccc(C(=O)COC(=O)c2cccs2)cc1
HT-1080
  EC50: > 50 µM (not active)
[18]
  EC50: 0.53 µM (active)
cells
  IC50: 24.3 µM (active)

## COc1ccc(Oc2c(Cl)cnn(-c3cccc(C)c3C)c2=O)cc1
[19]
  IC50: 12.5 µM (inactive)

## Cn1c(=O)c2c(nc(S)n2Cc2ccccc2Cl)n(C)c1=O
[20]
  Ki: 25.4 µM (inactive)

## CCOC(=O)OCC1OC(C#Cc2ccccc2)C=CC1OC(=O)OCC (centres undefined)
Cytochrome P450 2C9
  AC50: 0.0794 µM (inconclusive)

## OC[C@H]1O[C@@H](n2cnc3c(Nc4ccccc4)ncnc32)[C@H](O)[C@@H]1O [N6-PHENYLADENOSINE]
[21]
  IC50: 7.83 µM (active)
[22]
  IC50: 4.73 µM (active)

## COc1cc(C(c2cc3c(cc2O)OCO3)N2CCCC2)cc(OC)c1OC (centres undefined)
[23]
  IC50: > 40 µM (not active)
